Active and inactive are the calls of the source. The rule behind the calls is not given here. Positions of bridges follow the written chain, without caps; N, C: chain ends. Non-standard residues stand in square brackets, D forms with d. Residues, ends and D or L forms follow the SMILES beside them. *: point of attachment. NH(3,5-(CF3)2-benzyl) = FC(F)(F)c1cc(CN*)cc(C(F)(F)F)c1; Nle = CCCC[C@H](N)C(=O)O
What was measured:
Mu-type opioid receptor [1] = target: Mu-type opioid receptor (Cavia porcellus, UniProt P97266); assay: Agonist activity at mu opioid receptor in guinea pig ileum assessed as inhibition of electrically-stimulated contraction; format: functional, tissue-based
Sequence of Mu-type opioid receptor (Cavia porcellus, UniProt P97266) (P97266 whole entry): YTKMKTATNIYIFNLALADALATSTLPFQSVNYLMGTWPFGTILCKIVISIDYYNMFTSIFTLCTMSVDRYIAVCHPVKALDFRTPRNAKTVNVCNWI

[2] = target: Delta-type opioid receptor (Mus musculus, UniProt P32300); assay: Agonist activity at delta opioid receptor in mouse vas deferens assessed as inhibition of electrically-stimulated contraction; format: functional, tissue-based
Sequence of Delta-type opioid receptor (Mus musculus, UniProt P32300) (P32300 whole entry): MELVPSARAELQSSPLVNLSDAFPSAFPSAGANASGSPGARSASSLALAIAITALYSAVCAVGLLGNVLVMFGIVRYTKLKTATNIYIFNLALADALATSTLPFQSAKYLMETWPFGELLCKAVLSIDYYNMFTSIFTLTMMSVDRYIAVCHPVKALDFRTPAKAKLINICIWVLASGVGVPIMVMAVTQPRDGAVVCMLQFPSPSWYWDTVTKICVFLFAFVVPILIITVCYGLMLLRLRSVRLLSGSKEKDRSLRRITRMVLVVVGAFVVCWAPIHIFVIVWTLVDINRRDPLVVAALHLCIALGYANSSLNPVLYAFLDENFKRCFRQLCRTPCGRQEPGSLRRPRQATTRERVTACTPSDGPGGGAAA

[3] = target: T1, Delta-type opioid receptor (Homo sapiens, UniProt P41143); assay: Displacement of [3H]DPDPE from human delta opioid receptor expressed in HN9.10 cells; format: cell-based
T1 sequence (P41143 whole entry): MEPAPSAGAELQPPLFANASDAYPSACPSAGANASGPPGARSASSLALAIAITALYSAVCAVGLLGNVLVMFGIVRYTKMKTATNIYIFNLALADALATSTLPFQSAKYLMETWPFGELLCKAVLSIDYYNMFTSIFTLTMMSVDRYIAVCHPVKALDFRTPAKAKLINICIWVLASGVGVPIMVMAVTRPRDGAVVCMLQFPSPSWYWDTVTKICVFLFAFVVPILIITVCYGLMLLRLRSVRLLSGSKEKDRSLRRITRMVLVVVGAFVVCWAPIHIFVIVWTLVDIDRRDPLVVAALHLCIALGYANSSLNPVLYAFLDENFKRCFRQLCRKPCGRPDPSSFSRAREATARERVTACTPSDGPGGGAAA

Mu-type opioid receptor [4] = target: T2, Mu-type opioid receptor (Rattus norvegicus, UniProt P33535); assay: Displacement of [3H]DAMGO from rat mu opioid receptor expressed in HN9.10 cells; format: cell-based
T2 sequence (P33535 whole entry): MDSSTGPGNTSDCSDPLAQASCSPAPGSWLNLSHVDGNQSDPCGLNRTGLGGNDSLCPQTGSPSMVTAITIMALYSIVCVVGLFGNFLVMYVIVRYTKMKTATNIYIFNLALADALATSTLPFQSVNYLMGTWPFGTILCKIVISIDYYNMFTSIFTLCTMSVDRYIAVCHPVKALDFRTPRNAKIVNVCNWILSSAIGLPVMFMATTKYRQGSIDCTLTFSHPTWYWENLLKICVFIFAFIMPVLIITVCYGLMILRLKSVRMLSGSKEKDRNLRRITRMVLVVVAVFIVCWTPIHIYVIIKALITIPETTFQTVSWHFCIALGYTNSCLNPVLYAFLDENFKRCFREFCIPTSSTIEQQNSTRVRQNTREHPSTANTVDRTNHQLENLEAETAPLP

Substance-P receptor [5] = target: Substance-P receptor (Rattus norvegicus, UniProt P14600); assay: Displacement of [3H]substance P from rat NK1 receptor expressed in CHO cell membranes; design: species or system Membrane
Sequence of Substance-P receptor (Rattus norvegicus, UniProt P14600) (P14600 whole entry): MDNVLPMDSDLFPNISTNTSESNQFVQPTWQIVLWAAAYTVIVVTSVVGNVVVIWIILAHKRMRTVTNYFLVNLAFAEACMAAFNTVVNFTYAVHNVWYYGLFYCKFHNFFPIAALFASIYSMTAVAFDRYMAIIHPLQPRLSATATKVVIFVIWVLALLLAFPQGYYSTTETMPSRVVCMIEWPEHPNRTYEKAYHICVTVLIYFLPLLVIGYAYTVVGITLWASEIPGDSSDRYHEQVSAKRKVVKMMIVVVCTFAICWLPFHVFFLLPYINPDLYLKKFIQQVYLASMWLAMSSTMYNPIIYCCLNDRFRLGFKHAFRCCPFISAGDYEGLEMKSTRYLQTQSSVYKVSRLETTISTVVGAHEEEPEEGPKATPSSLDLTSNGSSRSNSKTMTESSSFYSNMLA

[6] = target: Mu-type opioid receptor (Cavia porcellus) (UniProt P97266); assay: Agonist activity at mu opioid receptor in guinea pig ileum assessed as inhibition of electrically-stimulated contraction at 1 uM; format: functional, tissue-based
Sequence of Mu-type opioid receptor (Cavia porcellus) (P97266 whole entry): as the sequence (P97266 whole entry) above

[7] = target: Mu-type opioid receptor (Cavia porcellus) (UniProt P97266); assay: Antagonist activity at mu opioid receptor in guinea pig ileum assessed as effect on electrically-stimulated contraction at 1 uM; format: functional, tissue-based
Substance-P receptor [8] = target: Substance-P receptor (Homo sapiens, UniProt P25103); assay: Displacement of [3H]substance P from human NK1 receptor expressed in CHO cell membranes
Sequence of Substance-P receptor (Homo sapiens, UniProt P25103) (P25103 whole entry): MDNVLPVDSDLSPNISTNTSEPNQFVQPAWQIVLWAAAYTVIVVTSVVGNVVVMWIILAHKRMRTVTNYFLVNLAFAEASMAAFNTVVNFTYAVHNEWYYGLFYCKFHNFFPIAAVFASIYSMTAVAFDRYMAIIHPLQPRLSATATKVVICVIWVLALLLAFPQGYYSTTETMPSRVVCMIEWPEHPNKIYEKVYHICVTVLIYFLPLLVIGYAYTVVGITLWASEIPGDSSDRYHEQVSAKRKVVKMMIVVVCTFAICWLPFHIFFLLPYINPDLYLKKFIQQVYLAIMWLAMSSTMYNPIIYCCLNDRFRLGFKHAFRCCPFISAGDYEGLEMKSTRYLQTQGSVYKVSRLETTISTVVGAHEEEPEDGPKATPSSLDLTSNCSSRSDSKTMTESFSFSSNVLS

[9] = target: T1, Delta-type opioid receptor; assay: Agonist activity at human delta opioid receptor expressed in HN9.10 cells assessed as stimulation of [35S]GTPgammaS binding; format: functional, cell-based
[10] = target: T1, Delta-type opioid receptor; assay: Agonist activity at human delta opioid receptor expressed in HN9.10 cells assessed as stimulation of [35S]GTPgammaS binding relative to untreated basal control; format: functional, cell-based
Mu-type opioid receptor [11] = target: T2, Mu-type opioid receptor; assay: Agonist activity at rat mu opioid receptor expressed in HN9.10 cells assessed as stimulation of [35S]GTPgammaS binding; format: functional, cell-based
[12] = target: Mu-type opioid receptor (Rattus norvegicus) (UniProt P33535); assay: Agonist activity at rat mu opioid receptor expressed in HN9.10 cells assessed as stimulation of [35S]GTPgammaS binding relative to untreated basal control; format: functional, cell-based
Sequence of Mu-type opioid receptor (Rattus norvegicus) (P33535 whole entry): as the sequence (P33535 whole entry) above

[13] = Half life in rat plasma at 37 degC; format: ADME, cell-free
[14] = target: Substance-P receptor (Cavia porcellus) (UniProt P30547); conditions: Ileum
Sequence of Substance-P receptor (Cavia porcellus) (P30547 whole entry): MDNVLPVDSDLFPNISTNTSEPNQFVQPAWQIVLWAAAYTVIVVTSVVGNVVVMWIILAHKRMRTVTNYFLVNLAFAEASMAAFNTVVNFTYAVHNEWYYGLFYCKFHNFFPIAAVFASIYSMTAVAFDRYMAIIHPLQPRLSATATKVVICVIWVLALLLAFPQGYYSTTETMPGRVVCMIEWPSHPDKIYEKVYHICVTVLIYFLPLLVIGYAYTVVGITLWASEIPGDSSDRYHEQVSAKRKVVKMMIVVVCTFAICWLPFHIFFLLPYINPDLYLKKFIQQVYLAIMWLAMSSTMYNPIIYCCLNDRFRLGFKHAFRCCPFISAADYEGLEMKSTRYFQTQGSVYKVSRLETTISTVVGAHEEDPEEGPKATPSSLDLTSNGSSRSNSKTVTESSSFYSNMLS
Description: Antagonist activity at NK1 receptor in guinea pig ileum assessed as inhibition of substance P-induced muscle contraction in presence of naloxone

[15] = Metabolic stability in rat plasma assessed as parent compound remaining at 37 degC after 24 hrs; format: ADME, cell-free; conditions: read-out: Stability

Row | SMILES | IC50 (Mu-type opioid receptor [1]) | IC50 [2] | IC50 [3] | IC50 (Mu-type opioid receptor [4]) | IC50 (Substance-P receptor [5]) | inhibition [6] | Activity [7] | IC50 (Substance-P receptor [8]) | EC50 ([9]; read-out: pEC50 (converted)) | Emax [10] | EC50 (Mu-type opioid receptor [11]) | Emax [12] | half-life [13] | Ke [14] | EC50 ([9]; read-out: EC50) | remaining at 24 h [15]
1 | CSCC[C@H](NC(=O)[C@H](Cc1ccccc1)NC(=O)CNC(=O)[C@@H](C)NC(=O)[C@@H](N)Cc1ccc(O)cc1)C(N)=O | 45 nM | 36 nM | – | – | – | – | – | – | – | – | – | – | – | – | – | –
2 | CC(C)C[C@H](NC(=O)[C@@H]1CCCN1C(=O)[C@@H]1CSSC[C@@H](NC(=O)[C@@H](N)Cc2ccc(O)cc2)C(=O)NCC(=O)N[C@@H](Cc2ccccc2)C(=O)N1)C(=O)N[C@@H](Cc1c[nH]c2ccccc12)C(=O)NCc1cc(C(F)(F)F)cc(C(F)(F)F)c1 | – | – | 22.4 nM | 427 nM | 1780 nM | 10% | Active | – | – | – | – | – | – | – | – | –
3 | CC(C)C[C@H](NC(=O)[C@@H]1CCCN1C(=O)[C@H]1CSSC[C@@H](NC(=O)[C@@H](N)Cc2ccc(O)cc2)C(=O)NCC(=O)N[C@@H](Cc2ccccc2)C(=O)N1)C(=O)N[C@@H](Cc1c[nH]c2ccccc12)C(=O)NCc1cc(C(F)(F)F)cc(C(F)(F)F)c1 | – | – | 15.5 nM | 115 nM | 138 nM | – | – | – | – | – | – | – | – | – | – | –
4 | CCCC[C@@H]1NC(=O)[C@H](Cc2ccccc2)NC(=O)CNC(=O)[C@H](NC(=O)[C@@H](N)Cc2ccc(O)cc2)CSSC[C@@H](C(=O)N[C@@H](Cc2c[nH]c3ccccc23)C(=O)NCc2cc(C(F)(F)F)cc(C(F)(F)F)c2)NC(=O)[C@@H]2CCCN2C1=O (H-Y[dC]GF[Nle]PCW-{NH(3,5-(CF3)2-benzyl)}; disulfide 2-7) | 1000 nM | – | 2.69 nM | 166 nM | 95.5 nM | – | – | 0.186 nM | 0.0174 nM | 11% | 36 nM | 36% | > 6 h | 2.2 nM | – | –
5 | CCCC[C@@H]1NC(=O)[C@H](Cc2ccccc2)NC(=O)CNC(=O)[C@H](NC(=O)[C@@H](N)Cc2ccc(O)cc2)CSSC[C@H](C(=O)N[C@@H](Cc2c[nH]c3ccccc23)C(=O)NCc2cc(C(F)(F)F)cc(C(F)(F)F)c2)NC(=O)[C@@H]2CCCN2C1=O (H-Y[dC]GF[Nle]P[dC]W-{NH(3,5-(CF3)2-benzyl)}; disulfide 2-7) | – | – | 117 nM | 316 nM | 22.4 nM | 3% | Active | 0.49 nM | – | 110% | 22 nM | 9% | > 6 h | 12 nM | 13 nM | 70%

Reference: ChEMBL document CHEMBL1152616, “The biological activity and metabolic stability of peptidic bifunctional compounds that are opioid receptor agonists and neurokinin-1 receptor antagonists with a cystine moiety” (Bioorg Med Chem, 2009)
